Test results: the supplement of paper PMC5579334

Key:
[1] = system: HS-PSS; test: relative IC50 (inflection point of fitted dose-response curve, CellTox-Green cytotoxicity, 72 h; top asymptote may be below 50%); higher = less potent
How it was run: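 MPNST cell lines and primary human Schwann cells were grown for 72 h at 37 °C in 384-well plates containing five 10-fold compound dilutions. CellTox-Green, added before seeding at a final 1:1000 dilution, gave fluorescence from DNA released by disrupted cells, and signals were scaled to vehicle and positive-control wells. Curves were fitted with a four-parameter logistic model. Drug sensitivity score and relative IC50 come from these fits, with IC50 censored at the top concentration.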

[2] = system: HS-PSS; test: relative IC50 (inflection point of fitted dose-response curve, CellTiter-Glo viability, 72 h; top asymptote may be below 50% inhibition); higher = less potent
How it was run: (§1)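 Viability of MPNST cell lines and primary human Schwann cells was read as CellTiter-Glo ATP luminescence after 72 h at 37 °C, 5% CO2, in 384-well plates seeded with 750–1000 cells per well. Each compound had been preprinted at five concentrations in 10-fold steps. Signals were scaled between vehicle and positive-control wells, duplicates averaged where present, and fitted with four-parameter logistic curves. Drug sensitivity score and relative IC50 (censored at the top concentration) come from those fits, and percent inhibition is taken at the top concentration.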

[3] = system: YST-1; test: as above
How it was run: as §1

[4] = system: HS-Sch-2; test: as above
How it was run: as §1

Row | Compound | relative IC50 [1] [nM] | relative IC50 [2] [nM] | relative IC50 [3] [nM] | relative IC50 [4] [nM]
1 | CCNc1nc(Nc2cc(F)c(C(=O)N3CCOCC3)cc2OC)ncc1C(F)(F)F [GNE-7915] | > 1000 | > 1000 | > 1000 | –
2 | CNC(=O)c1ccc(-c2cnc3ncc(Cc4ccc5ncccc5c4)n3n2)cc1F [NVP-INC280] | > 1000 | > 1000 | – | –
3 | O=c1[nH]c(C2CCCN2)nc2c1oc1ccc(Cl)cc12 (configuration not stated) | – | 1500 | 1220 | –
4 | C[C@H](Nc1ncnc2nc[nH]c12)c1cc2cccc(Cl)c2c(=O)n1-c1ccccc1 [Duvelisib] | – | > 500 | – | –
5 | Cc1cccc(CC(=O)N2CCc3c2ccc(-c2cn(C)c4ncnc(N)c24)c3F)n1 | – | 993 | – | –
6 | CS(=O)(=O)c1ccc(-c2cnc(N)c(C(=O)Nc3ccccc3)n2)cc1 [VE-821] | > 10000 | – | > 10000 | > 10000
7 | O=C(c1ccc(/C=C/c2n[nH]c3ccccc23)cc1)N1CCNCC1 [KW-2449] | > 2500 | – | 509 | > 2500
8 | Nc1nc(N)c2nc(-c3cccc(O)c3)c(-c3cccc(O)c3)nc2n1 [TG100-115] | > 10000 | > 10000 | – | –
9 | NS(=O)(=O)NCCNc1nonc1/C(=N/O)Nc1ccc(F)c(Br)c1 [Epacadostat] | > 10000 | > 10000 | – | –
10 | NC(=O)Nc1sc(-c2ccc(F)cc2)cc1C(N)=O [TPCA-1] | > 25000 | 3980 | 4330 | –
11 | CCOc1ccn(-c2ccc(F)cc2)c(=O)c1C(=O)Nc1ccc(Oc2ccnc(N)c2Cl)c(F)c1 | > 2500 | – | > 2500 | > 2500
12 | CCCNC(=O)Nc1ccc(Oc2ncnc3cc(OC)c(OC)cc23)cc1Cl [KRN-633] | > 2500 | – | > 2500 | > 2500
13 | C[C@@H]1CN(Cc2ccc(F)cc2)[C@@H](C)CN1C(=O)c1cc2c(C(=O)C(=O)N(C)C)cn(C)c2cc1Cl [Talmapimod] | > 10000 | – | 283 | > 10000
14 | CC(C)[C@@H](CS(=O)(=O)C(C)C)N1C(=O)[C@@](C)(CC(=O)O)C[C@H](c2cccc(Cl)c2)[C@H]1c1ccc(Cl)cc1 [AMG-232] | > 1000 | – | 190 | > 1000
15 | CC[C@H](C)C(=O)O[C@H]1C[C@H](O)C=C2C=C[C@H](C)[C@H](CC[C@@H](O)C[C@@H](O)CC(=O)O)[C@H]21 [Pravastatin] | > 10000 | – | > 10000 | > 10000
16 | CN(C)C(=O)c1ccc(S(=O)(=O)c2ccc(NC(=O)[C@@](C)(O)C(F)(F)F)c(Cl)c2)cc1 [AZD7545] | > 10000 | 3910 | > 10000 | –
17 | O=C(Nc1cccc(Cl)c1)Nc1ncc(CCNc2ncnc3ccsc23)s1 [SNS-314] | > 1000 | – | 8.84 | 185
18 | FC(F)(F)c1ccc(CNc2ccc(Cc3c[nH]c4ncc(Cl)cc34)cn2)cn1 [Pexidartinib] | > 10000 | 1740 | – | –
19 | O=C(O)c1ccc(O)c2ncccc12 [IOX-1] | > 100000 | > 100000 | 36600 | –
20 | CN(C)C(=N)NC(=N)N [Metformin] | > 100000 | – | > 100000 | > 100000
21 | O=C(Nc1nc2cccc(-c3ccc(CN4CCS(=O)(=O)CC4)cc3)n2n1)C1CC1 [Filgotinib] | > 10000 | – | 3690 | 2680
22 | CCN1CCN(Cc2ccc(Nc3ncc(F)c(-c4cc(F)c5nc(C)n(C(C)C)c5c4)n3)nc2)CC1 [Abemaciclib] | > 2500 | – | 27.5 | 1010
